Results: patent US20060252807A1, “Novel ortho-terphenyl inhibitors of p38 kinase and methods of treating inflammatory disorders” (Kalypsys, Inc., priority 2005, published 2006)

target: T1, active p38 alpha enzyme (Upstate Biotechnology) (Homo sapiens, UniProt Q16539); assay: p38α biochemical assay (ATP turnover, luminescent detection, Cambrex PKlight); conditions: p38α biochemical assay, Table 1 Biological Activity
T1 construct: purchased Upstate Biotechnology
Method in brief: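 Active human p38α was incubated with full-length MapkapK2 protein as substrate and 1.4 uM ATP (final) for 2 hours at 30C. Buffer: 200 mM Tris, 100 mM MgCl2, 1.5 mM EGTA, 4 mM CaCl2, 20 mM MOPS, 1 mM EDTA, 1% glycerol, 0.1% β-mercaptoethanol, 1 mg/ml BSA. Total ATP turnover read by luminescence.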

T1 sequence (Q16539 whole entry): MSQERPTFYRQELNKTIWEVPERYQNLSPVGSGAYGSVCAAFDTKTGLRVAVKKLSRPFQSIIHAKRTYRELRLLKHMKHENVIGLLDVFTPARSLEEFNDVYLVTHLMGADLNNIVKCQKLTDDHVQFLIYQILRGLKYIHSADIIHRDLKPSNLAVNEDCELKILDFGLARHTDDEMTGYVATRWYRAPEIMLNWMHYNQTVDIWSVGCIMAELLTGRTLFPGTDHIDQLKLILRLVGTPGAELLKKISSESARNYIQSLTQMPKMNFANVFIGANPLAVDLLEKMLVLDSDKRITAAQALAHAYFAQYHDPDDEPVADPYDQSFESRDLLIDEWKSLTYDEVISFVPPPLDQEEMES

Row | Compound | IC50 [µM]
1 | Cc1cccc(C(=O)NCc2onc(-c3ccc(F)cc3)c2-c2nc(C(=O)NC(C)C)cs2)c1 [Example 596] | > 1
2 | Cc1ccccc1C(=O)NCc1onc(-c2ccc(F)cc2)c1-c1nc(C(=O)NC(C)C)cs1 [Example 597] | > 1
3 | CC(C)NC(=O)c1csc(-c2c(-c3ccc(F)cc3)noc2CNC(=O)c2cccc(O)c2)n1 [Example 599] | > 1
4 | CC(C)NC(=O)c1csc(-c2c(-c3ccc(F)cc3)noc2CNC(=O)c2ccccc2O)n1 [Example 600] | > 1
5 | CC(C)NC(=O)c1csc(-c2c(-c3ccc(F)cc3)noc2CNC(=O)c2ccc(C#N)cc2)n1 [Example 604] | > 1
6 | CC(C)NC(=O)c1csc(-c2c(-c3ccc(F)cc3)noc2CNC(=O)/C=C/c2ccccc2)n1 [Example 606] | > 1
7 | CC(C)NC(=O)c1csc(-c2c(-c3ccc(F)cc3)noc2CNC(=O)c2ccccc2C=O)n1 [Example 607] | > 1
8 | Cc1ccc(C(=O)NCc2onc(-c3ccc(F)cc3)c2-c2nc(C(=O)NC(C)C)cs2)c(C)c1 [Example 609] | > 1
9 | Cc1cccc(C(=O)NCc2onc(-c3ccc(F)cc3)c2-c2nc(C(=O)NC(C)C)cs2)c1C [Example 611] | > 1
10 | COc1ccc(C(=O)NCc2onc(-c3ccc(F)cc3)c2-c2nc(C(=O)NC(C)C)cs2)cc1 [Example 616] | > 1
11 | Cc1cccc(C(=O)NCc2onc(-c3ccc(F)cc3)c2-c2nc(C(=O)NC(C)C)cs2)c1O [Example 617] | > 1
12 | CC(C)NC(=O)c1csc(-c2c(-c3ccc(F)cc3)noc2CNC(=O)Cc2ccccc2O)n1 [Example 618] | > 1
13 | CC(C)NC(=O)c1csc(-c2c(-c3ccc(F)cc3)noc2CNC(=O)Cc2cccc(O)c2)n1 [Example 619] | ≤ 1
14 | CC(C)NC(=O)c1csc(-c2c(-c3ccc(F)cc3)noc2CNC(=O)c2cccc(O)c2O)n1 [Example 622] | > 1
15 | CC(C)NC(=O)c1csc(-c2c(-c3ccc(F)cc3)noc2CNC(=O)c2ccc(O)cc2O)n1 [Example 623] | > 1
16 | Cc1ccc(C(=O)NCc2onc(-c3ccc(F)cc3)c2-c2nc(C(=O)NC(C)C)cs2)cc1F [Example 624] | > 1
17 | Cc1ccc(F)cc1C(=O)NCc1onc(-c2ccc(F)cc2)c1-c1nc(C(=O)NC(C)C)cs1 [Example 625] | > 1
18 | CC(C)NC(=O)c1csc(-c2c(-c3ccc(F)cc3)noc2CNC(=O)c2ccccc2Cl)n1 [Example 626] | > 1
19 | CC(C)NC(=O)c1csc(-c2c(-c3ccc(F)cc3)noc2CNC(=O)c2ccc(Cl)nc2)n1 [Example 627] | > 1
20 | CC(C)NC(=O)c1csc(-c2c(-c3ccc(F)cc3)noc2CNC(=O)c2ccnc(Cl)c2)n1 [Example 629] | > 1
21 | CC(C)NC(=O)c1csc(-c2c(-c3ccc(F)cc3)noc2CNC(=O)c2cc(Cl)ccn2)n1 [Example 630] | > 1
22 | CC(C)NC(=O)c1csc(-c2c(-c3ccc(F)cc3)noc2CNC(=O)c2c(F)cccc2F)n1 [Example 632] | > 1
23 | CC(C)NC(=O)c1csc(-c2c(-c3ccc(F)cc3)noc2CNC(=O)c2ccc(F)cc2F)n1 [Example 634] | > 1

Row | Compound | IC50 [µM]
24 | CC(C)NC(=O)c1csc(-c2c(-c3ccc(F)cc3)noc2CNC(=O)c2cc(F)cc(F)c2)n1 [Example 635] | > 1
25 | CC(C)NC(=O)c1csc(-c2c(-c3ccc(F)cc3)noc2CNC(=O)c2ccc(F)c(F)c2)n1 [Example 636] | > 1
26 | CC(CC(=O)NCc1onc(-c2ccc(F)cc2)c1-c1nc(C(=O)NC(C)C)cs1)CC(C)(C)C (stereo not drawn) [Example 637] | > 1
27 | CC(C)NC(=O)c1csc(-c2c(-c3ccc(F)cc3)noc2CNC(=O)c2cc3ccccc3o2)n1 [Example 638] | > 1
28 | CC(C)NC(=O)c1csc(-c2c(-c3ccc(F)cc3)noc2CNC(=O)C2CCc3ccccc32)n1 (stereo not drawn) [Example 639] | > 1
29 | CC(C)NC(=O)c1csc(-c2c(-c3ccc(F)cc3)noc2CNC(=O)C(Cl)(Cl)Cl)n1 [Example 640] | > 1
30 | CC(C)NC(=O)c1csc(-c2c(-c3ccc(F)cc3)noc2CNC(=O)/C=C/c2ccccc2O)n1 [Example 641] | > 1
31 | CC(C)NC(=O)c1csc(-c2c(-c3ccc(F)cc3)noc2CNC(=O)/C=C/c2cccc(O)c2)n1 [Example 643] | > 1
32 | CC(=O)c1cccc(C(=O)NCc2onc(-c3ccc(F)cc3)c2-c2nc(C(=O)NC(C)C)cs2)c1 [Example 644] | > 1
33 | CC(C)NC(=O)c1csc(-c2c(-c3ccc(F)cc3)noc2CNC(=O)c2ccc(C(C)C)cc2)n1 [Example 646] | > 1
34 | Cc1ccccc1CCC(=O)NCc1onc(-c2ccc(F)cc2)c1-c1nc(C(=O)NC(C)C)cs1 [Example 647] | > 1
35 | Cc1cccc(CCC(=O)NCc2onc(-c3ccc(F)cc3)c2-c2nc(C(=O)NC(C)C)cs2)c1 [Example 648] | > 1
36 | CCC(C(=O)NCc1onc(-c2ccc(F)cc2)c1-c1nc(C(=O)NC(C)C)cs1)c1ccccc1 (stereo not drawn) [Example 649] | > 1
37 | CCCc1ccc(C(=O)NCc2onc(-c3ccc(F)cc3)c2-c2nc(C(=O)NC(C)C)cs2)cc1 [Example 651] | > 1
38 | CC(C)NC(=O)c1csc(-c2c(-c3ccc(F)cc3)noc2CNC(=O)c2ccc3c(c2)OCO3)n1 [Example 652] | > 1
39 | CC(C)NC(=O)c1csc(-c2c(-c3ccc(F)cc3)noc2CNC(=O)/C=C/c2ccccc2F)n1 [Example 653] | ≤ 1
40 | CCOc1ccccc1C(=O)NCc1onc(-c2ccc(F)cc2)c1-c1nc(C(=O)NC(C)C)cs1 [Example 654] | > 1
41 | CC(C)NC(=O)c1csc(-c2c(-c3ccc(F)cc3)noc2CNC(=O)C(C)c2ccc(O)cc2)n1 (stereo not drawn) [Example 658] | > 1
42 | CC(C)NC(=O)c1csc(-c2c(-c3ccc(F)cc3)noc2CNC(=O)c2ccccc2[N+](=O)[O-])n1 [Example 659] | > 1
43 | COc1cccc(O)c1C(=O)NCc1onc(-c2ccc(F)cc2)c1-c1nc(C(=O)NC(C)C)cs1 [Example 661] | > 1
44 | CC(C)NC(=O)c1csc(-c2c(-c3ccc(F)cc3)noc2CNC(=O)c2cc(O)c(O)c(O)c2)n1 [Example 665] | > 1
45 | CC(C)NC(=O)c1csc(-c2c(-c3ccc(F)cc3)noc2CNC(=O)Cc2ccc(O)c(F)c2)n1 [Example 666] | > 1
46 | Cc1cc(C(=O)NCc2onc(-c3ccc(F)cc3)c2-c2nc(C(=O)NC(C)C)cs2)cc(Cl)n1 [Example 667] | > 1

Results, then the molecule that gave them:

Row | IC50 [µM] | Compound
47 | > 1 | Cc1ccc(C(=O)NCc2onc(-c3ccc(F)cc3)c2-c2nc(C(=O)NC(C)C)cs2)cc1 [Example 598]
48 | > 1 | CC(C)NC(=O)c1csc(-c2c(-c3ccc(F)cc3)noc2CNC(=O)c2ccc(F)cc2)n1 [Example 601]
49 | > 1 | CC(C)NC(=O)c1csc(-c2c(-c3ccc(F)cc3)noc2CNC(=O)c2cccc(F)c2)n1 [Example 602]
50 | > 1 | CCCCCCCC(=O)NCc1onc(-c2ccc(F)cc2)c1-c1nc(C(=O)NC(C)C)cs1 [Example 603]
51 | > 1 | CC(C)NC(=O)c1csc(-c2c(-c3ccc(F)cc3)noc2CNC(=O)c2cccc(C#N)c2)n1 [Example 605]
52 | > 1 | CC(C)NC(=O)c1csc(-c2c(-c3ccc(F)cc3)noc2CNC(=O)c2ccc(C=O)cc2)n1 [Example 608]
53 | > 1 | Cc1ccccc1CC(=O)NCc1onc(-c2ccc(F)cc2)c1-c1nc(C(=O)NC(C)C)cs1 [Example 610]
54 | > 1 | Cc1ccc(C)c(C(=O)NCc2onc(-c3ccc(F)cc3)c2-c2nc(C(=O)NC(C)C)cs2)c1 [Example 612]
55 | > 1 | Cc1cc(C)cc(C(=O)NCc2onc(-c3ccc(F)cc3)c2-c2nc(C(=O)NC(C)C)cs2)c1 [Example 613]
56 | > 1 | Cc1ccc(C(=O)NCc2onc(-c3ccc(F)cc3)c2-c2nc(C(=O)NC(C)C)cs2)cc1C [Example 614]
57 | > 1 | CCc1ccc(C(=O)NCc2onc(-c3ccc(F)cc3)c2-c2nc(C(=O)NC(C)C)cs2)cc1 [Example 615]
58 | > 1 | Cc1ccc(O)c(C(=O)NCc2onc(-c3ccc(F)cc3)c2-c2nc(C(=O)NC(C)C)cs2)c1 [Example 620]
59 | > 1 | CC(C)NC(=O)c1csc(-c2c(-c3ccc(F)cc3)noc2CNC(=O)c2cc(O)ccc2O)n1 [Example 621]
60 | > 1 | CC(C)NC(=O)c1csc(-c2c(-c3ccc(F)cc3)noc2CNC(=O)c2cccnc2Cl)n1 [Example 628]
61 | ≤ 1 | CC(C)NC(=O)c1csc(-c2c(-c3ccc(F)cc3)noc2CNC(=O)c2ccncc2Cl)n1 [Example 631]
62 | > 1 | CC(C)NC(=O)c1csc(-c2c(-c3ccc(F)cc3)noc2CNC(=O)c2cccc(F)c2F)n1 [Example 633]
63 | > 1 | CC(=O)c1ccc(C(=O)NCc2onc(-c3ccc(F)cc3)c2-c2nc(C(=O)NC(C)C)cs2)cc1 [Example 642]
64 | > 1 | CC(=O)c1ccccc1C(=O)NCc1onc(-c2ccc(F)cc2)c1-c1nc(C(=O)NC(C)C)cs1 [Example 645]
65 | > 1 | Cc1cc(C)c(C(=O)NCc2onc(-c3ccc(F)cc3)c2-c2nc(C(=O)NC(C)C)cs2)c(C)c1 [Example 650]
66 | > 1 | Cc1ccccc1OCC(=O)NCc1onc(-c2ccc(F)cc2)c1-c1nc(C(=O)NC(C)C)cs1 [Example 655]
67 | > 1 | CC(C)NC(=O)c1csc(-c2c(-c3ccc(F)cc3)noc2CNC(=O)CCc2ccccc2O)n1 [Example 656]
68 | > 1 | COc1ccccc1CC(=O)NCc1onc(-c2ccc(F)cc2)c1-c1nc(C(=O)NC(C)C)cs1 [Example 657]
69 | > 1 | CC(C)NC(=O)c1csc(-c2c(-c3ccc(F)cc3)noc2CNC(=O)c2cccc([N+](=O)[O-])c2)n1 [Example 660]
70 | > 1 | COc1ccc(O)c(C(=O)NCc2onc(-c3ccc(F)cc3)c2-c2nc(C(=O)NC(C)C)cs2)c1 [Example 662]
71 | > 1 | COc1ccc(C(=O)NCc2onc(-c3ccc(F)cc3)c2-c2nc(C(=O)NC(C)C)cs2)c(O)c1 [Example 663]
72 | > 1 | COc1ccc(C(=O)NCc2onc(-c3ccc(F)cc3)c2-c2nc(C(=O)NC(C)C)cs2)cc1O [Example 664]
